In publication PMC9266914, “Broad Spectrum Functional Activity of Structurally Related Monoanionic Au(III) Bis(Dithiolene) Complexes” (International Journal of Molecular Sciences, 2022):
Where two headings read alike, the source gives them in different places.

Assays:
[1] = test system: A2780 ovarian cancer cells; assay: MTT cytotoxicity assay in A2780 (cisplatin sensitive) ovarian cancer cells; assay type: cell-based, human; details: 24 h incubation, read-out: IC50 A2780, 24 h
Procedure: (§1) Cells were exposed to increasing concentrations of the complexes (0.01–100 μM) for 24 and/or 48 h, at 37 °C. The IC50 values were calculated from dose–response curves using the colorimetric MTT assay. […] Most complexes presented a similar cytotoxicity profile compared to Auranofin, but higher activity compared to Cisplatin, and, most importantly, were active in the Cisplatin-resistant OVCAR8 cells (Table 2).
(§2) The cytotoxic activity of the complexes was evaluated in the A2780 (cisplatin sensitive) (Sigma-Aldrich) and OVCAR8 (cisplatin resistant) (ATCC) ovarian cancer cells. Cells were grown in RPMI-1640 medium (Gibco, Thermo Fisher) supplemented with 10% fetal bovine serum (FBS) and were maintained at 37 °C in a humidified atmosphere with 5% CO2. The complexes were initially dissolved in DMSO and then in culture medium to prepare serial dilutions in the range 10^−9–10^−4 M. After 24 and/or 48 h incubation the cellular viability was measured by the colorimetric MTT assay, as previously described.

[2] = test system: OVCAR8 ovarian cancer cells; assay: MTT cytotoxicity assay in OVCAR8 (cisplatin resistant) ovarian cancer cells; assay type: cell-based, human; details: 48 h incubation
Procedure: as §1, §2

ΦX174 supercoiled DNA = assay: Electrophoretic mobility of supercoiled DNA; assay type: binding; details: 24 h, 37 °C, in words
Procedure: The potential interaction of the complexes with DNA was evaluated through the assessment of the electrophoretic mobility of supercoiled ϕX174 DNA, using a previously described method. To that end, a mixture was prepared containing 200 ng of supercoiled ϕX174 DNA (Promega) in 10 mM of phosphate buffer (pH 7.2) and increasing concentrations of Cisplatin, as a positive control, or the metal complexes (in a total volume of 20 μL). The mixture was incubated for 24 h at 37 °C, in the dark. As controls, samples having non-incubated plasmid and plasmid incubated with DMSO were also prepared. Then, all samples were prepared for electrophoresis through the addition of 2 μL of 10× DNA loading buffer (Applichem) and loading on an 0.8% agarose gel in TBE buffer (Thermo Fisher Scientific, Waltham, MA, USA). The gel was run at 90 V for approximately 3 h, stained using a 3× GelRed® (Biotium) solution in H2O, and the bands visualized using an AlphaImagerEP (Alpha Innotech) under UV light.

[3] = test system: A2780 ovarian cancer cells; parameters: method as in PMID 32391537; details: MTT, starred values, cited from earlier work
[4] = molecular target: human serum albumin (HSA) (Homo sapiens, UniProt P02768); parameters: method as in PMID 26469679, PMID 22835721, PMID 32283915, doi:10.1016/j.jlumin.2011.06.005; details: cited from earlier work
human serum albumin (HSA), sequence (P02768 25-609): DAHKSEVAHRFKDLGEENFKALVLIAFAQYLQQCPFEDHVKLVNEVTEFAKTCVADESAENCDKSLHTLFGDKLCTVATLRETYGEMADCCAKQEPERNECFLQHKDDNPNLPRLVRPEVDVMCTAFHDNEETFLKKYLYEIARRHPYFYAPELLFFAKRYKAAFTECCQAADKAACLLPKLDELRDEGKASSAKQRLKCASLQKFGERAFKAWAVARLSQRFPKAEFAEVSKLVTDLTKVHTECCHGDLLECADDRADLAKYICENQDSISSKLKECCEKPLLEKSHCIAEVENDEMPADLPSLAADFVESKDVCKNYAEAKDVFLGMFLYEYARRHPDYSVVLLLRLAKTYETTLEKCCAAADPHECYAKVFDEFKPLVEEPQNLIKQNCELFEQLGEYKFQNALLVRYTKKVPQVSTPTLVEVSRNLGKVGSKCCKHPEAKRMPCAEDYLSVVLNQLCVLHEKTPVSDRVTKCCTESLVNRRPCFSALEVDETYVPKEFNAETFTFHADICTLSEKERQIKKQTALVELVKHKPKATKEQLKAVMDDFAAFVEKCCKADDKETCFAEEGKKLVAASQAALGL

S. aureus Newman = test system: S. aureus Newman; parameters: method as in PMID 32391537; details: complexes starred as Complex 1 / Complex 2; cited from earlier work
E. coli ATCC25922 = test system: E. coli ATCC25922; parameters: method as in PMID 32391537; details: complexes starred as Complex 1 / Complex 2; cited from earlier work
C. albicans SC5134 = test system: C. albicans SC5134; parameters: method as in PMID 32391537; details: complexes starred as Complex 1 / Complex 2; cited from earlier work
C. glabrata CBS138 = test system: C. glabrata CBS138; parameters: method as in PMID 32391537; details: complexes starred as Complex 1 / Complex 2; cited from earlier work
[5] = 48 h incubation, read-out: IC50 A2780, 48 h
[6] = 24 h incubation, read-out: IC50 A2780, 24 h

Compound	IC50 [1]	IC50 [2]	conformational changes / electrophoretic mobility of DNA (ΦX174 supercoiled DNA)	IC50 [3, 5]	binding constant to HSA [4]	IC50 [3, 6]	MIC S. aureus Newman (S. aureus Newman)	MIC E. coli ATCC25922 (E. coli ATCC25922)	MIC C. albicans SC5134 (C. albicans SC5134)	MIC C. glabrata CBS138 (C. glabrata CBS138)
N.N.[Cl][Pt][Cl] [Cisplatin, reference compound]	21.1 ± 5 µM	10.1 ± 2.3 µM	able to alter the electrophoretic mobility of the nicked and supercoiled forms of DNA in a dose-dependent way	3.6 ± 1.25 µM	10^2 M^−1	–	–	–	–	–
CC[N+](CC)(CC)CC.CCn1c2c(sc1=S)[S][Au-]1([S]c3sc(=S)n(CC)c3[S]1)[S]2 [[N][AuSEt(=S)]]	–	3.76 ± 0.71 µM	–	1.3 ± 0.32 µM	–	4.23 ± 0.8 µM	12.1 ± 3.9 µg/mL	>125 µg/mL	19.9 ± 2.4 µg/mL	9.7 ± 2.7 µg/mL
CCCn1c2c(sc1=S)[S][Au-]1([S]c3sc(=S)n(CCC)c3[S]1)[S]2.c1ccc([P+](c2ccccc2)(c2ccccc2)c2ccccc2)cc1 [[P][AuSPr(=S)]]	–	–	–	0.52 ± 0.23 µM	–	4.6 ± 1.15 µM	>125 µg/mL	>125 µg/mL	>125 µg/mL	>125 µg/mL
